What was measured:
[1] = target: T1, Human melanin-concentrating hormone (MCH1) (Homo sapiens, UniProt Q99705); experiment: Radioligand binding, human melanin-concentrating hormone MCH1 membranes, FlashPlate, [125I]-S36057; settings: compound at 10 μM; for A6: inhibition of radioligand binding, human melanin-concentrating hormone (MCH1): [125I]-S36057; for A6: inhibition of radioligand binding: [125I]-S36057, human MCH1 membranes
T1 construct: purchased Perkin Elmer Biosignal
Method in brief: (§1)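 Cloned human receptor membranes were coated onto FlashPlate wells and incubated with radioligand and compound (added from a 0.5 mM DMSO daughter plate) for 1 hour at room temperature in the dark. Scintillation counting gave percent inhibition, with DMSO defining total and reference ligand defining non-specific binding.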

Human opioid (ORL1) = target: T2, Human opioid (ORL1) (Homo sapiens, UniProt P41146); experiment: Radioligand binding, human opioid ORL1 membranes, FlashPlate, [125I]-Nociceptin; settings: compound at 10 μM, [125I]-Nociceptin; for A10: inhibition of radioligand binding: human ORL1 membranes, 10 µM
T2 construct: purchased Perkin Elmer Biosignal
T2 sequence (P41146 whole entry): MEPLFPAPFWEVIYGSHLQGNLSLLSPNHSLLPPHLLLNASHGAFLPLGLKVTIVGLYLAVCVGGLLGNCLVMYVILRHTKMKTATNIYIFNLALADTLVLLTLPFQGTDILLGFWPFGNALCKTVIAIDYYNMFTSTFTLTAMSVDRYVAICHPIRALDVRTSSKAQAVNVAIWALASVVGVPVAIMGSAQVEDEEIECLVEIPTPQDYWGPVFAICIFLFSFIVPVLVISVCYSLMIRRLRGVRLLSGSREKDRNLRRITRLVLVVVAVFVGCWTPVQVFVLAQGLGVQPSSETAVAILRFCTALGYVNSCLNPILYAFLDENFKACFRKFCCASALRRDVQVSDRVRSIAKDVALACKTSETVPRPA
Method in brief: as §1

Human neurokinin (NK1) = target: T3, Human neurokinin (NK1) (Homo sapiens, UniProt P25103); experiment: Radioligand binding, human neurokinin NK1 membranes, filtration, [125I]-Substance P; settings: compound at 10 μM, [125I]-Substance P; for A8: inhibition of radioligand binding: human NK1 membranes
T3 construct: purchased Perkin Elmer Biosignal
T3 sequence (P25103 whole entry): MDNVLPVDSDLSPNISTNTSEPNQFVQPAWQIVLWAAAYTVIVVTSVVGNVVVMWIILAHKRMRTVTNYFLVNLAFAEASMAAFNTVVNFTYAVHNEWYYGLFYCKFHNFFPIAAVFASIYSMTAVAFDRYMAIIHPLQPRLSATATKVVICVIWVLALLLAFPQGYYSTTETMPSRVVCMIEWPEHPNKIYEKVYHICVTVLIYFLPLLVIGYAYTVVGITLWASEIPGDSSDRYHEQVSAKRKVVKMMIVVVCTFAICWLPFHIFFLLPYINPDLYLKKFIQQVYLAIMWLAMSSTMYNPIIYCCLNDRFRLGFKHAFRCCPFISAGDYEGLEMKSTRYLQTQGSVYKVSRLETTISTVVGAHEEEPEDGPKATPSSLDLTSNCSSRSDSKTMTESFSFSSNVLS
Method in brief: (§2)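 Membranes from cloned human receptors were incubated with compound and radioligand for 1 hour at room temperature. Bound ligand was collected on 0.3% PEI-soaked filters, washed with cold 50 mM Tris-HCl pH 7.4, and counted by scintillation. Percent inhibition was computed against DMSO totals and reference-ligand nonspecific wells.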

Mouse urotensin (mUR2) = target: T4, Mouse urotensin (mUR2) (Mus musculus, UniProt Q8VIH9); experiment: Radioligand binding, mouse urotensin mUR2 membranes, FlashPlate, [125I]-Urotensin II; settings: compound at 10 μM, [125I]-Urotensin II; for A11: inhibition of radioligand binding: mouse mUR2 membranes
T4 construct: purchased Perkin Elmer Biosignal
T4 sequence (Q8VIH9 1-385): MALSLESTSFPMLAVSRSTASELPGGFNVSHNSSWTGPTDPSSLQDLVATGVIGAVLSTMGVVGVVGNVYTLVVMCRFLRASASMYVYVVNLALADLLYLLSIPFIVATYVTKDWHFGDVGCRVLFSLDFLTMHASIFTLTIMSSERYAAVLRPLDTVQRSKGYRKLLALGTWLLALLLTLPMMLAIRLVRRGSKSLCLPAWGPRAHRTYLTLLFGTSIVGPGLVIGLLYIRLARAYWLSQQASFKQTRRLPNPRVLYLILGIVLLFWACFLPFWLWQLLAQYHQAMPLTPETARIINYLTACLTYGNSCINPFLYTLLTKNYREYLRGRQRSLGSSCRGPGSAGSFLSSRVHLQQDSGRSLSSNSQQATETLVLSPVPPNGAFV
Method in brief: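 Cloned mouse urotensin (mUR2) receptor membranes from Perkin Elmer Biosignal were immobilized in FlashPlate microplates using a proprietary coating. Each well got 19.5 μl buffer, then 0.5 μl of DMSO, reference ligand, or compound. Adding 5 μl of [125I]-Urotensin II, diluted to 5× final concentration in binding buffer, started binding. Plates were sealed with TopSeal-A and incubated 1 hour at room temperature in the dark. Wells were counted for 30 seconds each on a TopCount after a 60-second delay, and percentage inhibition was calculated.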

Human Melanocortin (MC3) = target: T5, Human Melanocortin (MC3) (Homo sapiens, UniProt P41968); experiment: Radioligand binding, human melanocortin MC3 membranes, FlashPlate, [125I]-NDP-αMSH; settings: compound at 10 μM, [125I]-NDP-αMSH; for A3: inhibition of radioligand binding: human MC3 membranes
T5 construct: purchased Perkin Elmer Biosignal
T5 sequence (P41968 whole entry): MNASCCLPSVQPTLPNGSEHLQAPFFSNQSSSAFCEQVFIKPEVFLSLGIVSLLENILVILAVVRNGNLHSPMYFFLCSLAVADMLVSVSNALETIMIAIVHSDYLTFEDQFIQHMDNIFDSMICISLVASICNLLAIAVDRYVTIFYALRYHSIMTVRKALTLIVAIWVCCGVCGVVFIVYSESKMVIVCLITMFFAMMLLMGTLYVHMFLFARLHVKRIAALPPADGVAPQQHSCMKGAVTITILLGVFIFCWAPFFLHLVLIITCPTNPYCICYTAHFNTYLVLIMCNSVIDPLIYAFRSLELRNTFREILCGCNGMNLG
Method in brief: as §1

Human μ-opioid (MOP) = target: T6, Human μ-opioid (MOP) (Homo sapiens, UniProt P35372); experiment: Radioligand binding, human μ-opioid (MOP) membranes, FlashPlate, [3H]-Naloxone; settings: compound at 10 μM, [3H]-Naloxone; for A7: inhibition of radioligand binding: human MOP membranes, 10 µM
T6 construct: purchased Perkin Elmer Biosignal
T6 sequence (P35372 whole entry): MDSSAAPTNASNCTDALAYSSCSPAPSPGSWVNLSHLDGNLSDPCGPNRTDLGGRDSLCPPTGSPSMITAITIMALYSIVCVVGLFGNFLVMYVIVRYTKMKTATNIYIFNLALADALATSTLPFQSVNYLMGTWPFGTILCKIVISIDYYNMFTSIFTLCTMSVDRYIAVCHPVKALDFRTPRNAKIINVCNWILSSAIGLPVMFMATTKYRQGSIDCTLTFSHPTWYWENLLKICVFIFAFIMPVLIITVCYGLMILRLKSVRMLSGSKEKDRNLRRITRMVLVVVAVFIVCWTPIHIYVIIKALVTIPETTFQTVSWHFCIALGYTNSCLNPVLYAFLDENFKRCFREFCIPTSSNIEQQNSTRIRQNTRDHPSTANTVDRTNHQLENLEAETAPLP
Method in brief: as §1

Human melanocortin (MC5) = target: T7, Human melanocortin (MC5) (Homo sapiens, UniProt P33032); experiment: Radioligand binding, human melanocortin MC5 membranes, FlashPlate, [125I]-NDP-αMSH; settings: compound at 10 μM, [125I]-NDP-αMSH; for A5: inhibition of radioligand binding: human MC5 membranes
T7 construct: purchased Perkin Elmer Biosignal
T7 sequence (P33032 whole entry): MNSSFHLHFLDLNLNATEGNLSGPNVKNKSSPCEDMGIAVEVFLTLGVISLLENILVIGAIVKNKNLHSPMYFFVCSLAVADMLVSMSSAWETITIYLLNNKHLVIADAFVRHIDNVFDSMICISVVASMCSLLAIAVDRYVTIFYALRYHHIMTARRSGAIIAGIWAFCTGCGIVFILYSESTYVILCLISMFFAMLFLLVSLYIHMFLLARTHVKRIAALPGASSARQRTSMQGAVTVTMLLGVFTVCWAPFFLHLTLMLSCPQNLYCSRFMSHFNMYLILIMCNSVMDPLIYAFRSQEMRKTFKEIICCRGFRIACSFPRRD
Method in brief: as §1

[2] = target: T8, Human neuropeptide Y (NPY-Y1) (Homo sapiens, UniProt P25929); experiment: Radioligand binding, human neuropeptide Y NPY-Y1 membranes, FlashPlate, [125I]-PYY; settings: compound at 10 μM, [125I]-PYY; for A9: inhibition of radioligand binding: human NPY-Y1 membranes
T8 construct: purchased Perkin Elmer Biosignal
T8 sequence (P25929 1-384): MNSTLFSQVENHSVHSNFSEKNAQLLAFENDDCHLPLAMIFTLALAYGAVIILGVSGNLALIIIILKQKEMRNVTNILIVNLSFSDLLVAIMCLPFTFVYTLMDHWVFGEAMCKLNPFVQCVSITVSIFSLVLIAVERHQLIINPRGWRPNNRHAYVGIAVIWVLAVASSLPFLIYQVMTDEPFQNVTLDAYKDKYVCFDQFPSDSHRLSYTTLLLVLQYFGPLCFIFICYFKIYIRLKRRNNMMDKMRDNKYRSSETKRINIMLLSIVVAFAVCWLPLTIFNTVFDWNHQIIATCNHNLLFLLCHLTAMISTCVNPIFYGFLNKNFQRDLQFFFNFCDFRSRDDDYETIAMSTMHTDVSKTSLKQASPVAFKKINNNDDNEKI
Method in brief: as §1

Human κ-Opioid (KOP) = target: T9, Human κ-Opioid (KOP) (Homo sapiens, UniProt P41145); experiment: Radioligand binding, human κ-opioid (KOP) membranes, filtration, [3H]-Diprenorphine; settings: compound at 10 μM, [3H]-Diprenorphine; for A2: inhibition of radioligand binding: human KOP membranes
T9 construct: purchased Perkin Elmer Biosignal
T9 sequence (P41145 whole entry): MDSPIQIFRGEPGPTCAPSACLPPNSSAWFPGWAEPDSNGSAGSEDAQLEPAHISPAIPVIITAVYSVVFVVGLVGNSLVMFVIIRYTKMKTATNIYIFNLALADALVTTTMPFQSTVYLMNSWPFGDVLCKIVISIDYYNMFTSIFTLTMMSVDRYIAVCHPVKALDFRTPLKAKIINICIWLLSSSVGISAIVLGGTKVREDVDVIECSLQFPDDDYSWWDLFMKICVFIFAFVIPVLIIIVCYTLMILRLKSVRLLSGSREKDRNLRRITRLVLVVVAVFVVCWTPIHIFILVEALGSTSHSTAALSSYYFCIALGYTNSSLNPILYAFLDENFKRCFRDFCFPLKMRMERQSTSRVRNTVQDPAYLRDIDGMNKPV
Method in brief: as §2

Human Melanocortin (MC4) = target: T10, Human Melanocortin (MC4) (Homo sapiens, UniProt P32245); experiment: Radioligand binding, human melanocortin MC4 membranes, FlashPlate, [125I]-NDP-αMSH; settings: compound at 10 μM, [125I]-NDP-αMSH; for A4: inhibition of radioligand binding: human MC4 membranes
T10 construct: purchased Perkin Elmer Biosignal
T10 sequence (P32245 whole entry): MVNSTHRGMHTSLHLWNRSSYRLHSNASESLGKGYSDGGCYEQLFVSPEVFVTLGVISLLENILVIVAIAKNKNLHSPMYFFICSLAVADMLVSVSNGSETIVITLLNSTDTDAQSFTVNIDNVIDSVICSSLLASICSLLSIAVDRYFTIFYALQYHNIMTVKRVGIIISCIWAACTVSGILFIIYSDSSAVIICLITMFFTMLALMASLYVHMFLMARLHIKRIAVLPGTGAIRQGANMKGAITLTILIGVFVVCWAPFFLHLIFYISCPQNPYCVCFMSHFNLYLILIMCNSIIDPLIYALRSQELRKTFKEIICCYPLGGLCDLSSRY
Method in brief: as §1

Human δ-opioid (DOP) = target: T11, Human δ-opioid (DOP) (Homo sapiens, UniProt P41143); experiment: Radioligand binding, human δ-opioid (DOP) membranes, FlashPlate, [3H]-Bremazocine; settings: compound at 10 μM, [3H]-Bremazocine; for A1: inhibition of radioligand binding: human DOP membranes
T11 construct: purchased Perkin Elmer Biosignal
T11 sequence (P41143 whole entry): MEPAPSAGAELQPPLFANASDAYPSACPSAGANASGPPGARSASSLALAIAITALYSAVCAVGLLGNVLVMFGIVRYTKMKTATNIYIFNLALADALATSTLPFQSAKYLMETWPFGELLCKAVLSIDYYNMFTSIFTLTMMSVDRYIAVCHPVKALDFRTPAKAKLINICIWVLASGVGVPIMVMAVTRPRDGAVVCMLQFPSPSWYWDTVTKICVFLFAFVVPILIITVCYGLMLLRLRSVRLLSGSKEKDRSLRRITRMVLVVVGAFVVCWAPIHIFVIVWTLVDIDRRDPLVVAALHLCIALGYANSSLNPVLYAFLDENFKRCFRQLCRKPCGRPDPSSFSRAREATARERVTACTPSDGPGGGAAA
Method in brief: as §1

T1 sequence (Q99705 whole entry): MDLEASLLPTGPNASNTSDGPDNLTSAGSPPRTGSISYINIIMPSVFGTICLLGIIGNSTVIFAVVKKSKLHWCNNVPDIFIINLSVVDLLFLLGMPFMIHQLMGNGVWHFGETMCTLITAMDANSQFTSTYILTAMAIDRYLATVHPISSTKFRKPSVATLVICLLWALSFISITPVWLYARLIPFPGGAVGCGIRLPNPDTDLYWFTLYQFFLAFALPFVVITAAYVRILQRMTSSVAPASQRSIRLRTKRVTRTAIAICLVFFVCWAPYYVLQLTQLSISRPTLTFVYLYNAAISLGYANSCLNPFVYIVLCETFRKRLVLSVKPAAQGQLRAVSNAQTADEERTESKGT

SMILES	A6: inhibition of radioligand binding, human melanin-concentrating hormone (MCH1) [1]	A10: inhibition of radioligand binding, human opioid (ORL1) (Human opioid (ORL1))	A8: inhibition of radioligand binding, human neurokinin (NK1) (Human neurokinin (NK1))	A11: inhibition of radioligand binding, mouse urotensin (mUR2) (Mouse urotensin (mUR2))	A3: inhibition of radioligand binding, human melanocortin (MC3) (Human Melanocortin (MC3))	A7: inhibition of radioligand binding, human μ-opioid (MOP) (Human μ-opioid (MOP))	A5: inhibition of radioligand binding, human melanocortin (MC5) (Human melanocortin (MC5))	A9: inhibition of radioligand binding, human neuropeptide Y (NPY-Y1) [2]	A2: inhibition of radioligand binding, human κ-opioid (KOP) (Human κ-Opioid (KOP))	A4: inhibition of radioligand binding, human melanocortin (MC4) (Human Melanocortin (MC4))	A1: inhibition of radioligand binding, human δ-opioid (DOP) (Human δ-opioid (DOP))	A10: inhibition of radioligand binding (Human opioid (ORL1))	A8: inhibition of radioligand binding (Human neurokinin (NK1))	A11: inhibition of radioligand binding (Mouse urotensin (mUR2))	A3: inhibition of radioligand binding (Human Melanocortin (MC3))	A7: inhibition of radioligand binding (Human μ-opioid (MOP))	A9: inhibition of radioligand binding [2]	A2: inhibition of radioligand binding (Human κ-Opioid (KOP); 10 µM)	A1: inhibition of radioligand binding (Human δ-opioid (DOP))	A6: inhibition of radioligand binding ([1]; 10 µM)	also measured
CSC1O[C@H](COCc2ccc(Cl)cc2)[C@@H](O)[C@@H](OCc2ccc(-c3ccccc3)cc2)[C@H]1NC(=O)CN (stereo partly shown) [compound 288]	− (“−” indicates less than 50% inhibition at 10 μM)	− (“−” indicates less than 50% inhibition at 10 μM)	+ (“+” indicates greater than 50% inhibition at 10 μM)	− (“−” indicates less than 50% inhibition at 10 μM)	− (“−” indicates less than 50% inhibition at 10 μM)	− (“−” indicates less than 50% inhibition at 10 μM)	− (“−” indicates less than 50% inhibition at 10 μM)	− (“−” indicates less than 50% inhibition at 10 μM)	− (“−” indicates less than 50% inhibition at 10 μM)	− (“−” indicates less than 50% inhibition at 10 μM)	− (“−” indicates less than 50% inhibition at 10 μM)										
NCCCC(=O)NC1C(OCc2ccc3ccccc3c2)OC(COCc2ccc3ccccc3c2)C(O)C1OCc1ccc(Cl)cc1 (stereo not shown) [compound 390]												+ (“+” indicates greater than 50% inhibition at 10 μM)	+ (“+” indicates greater than 50% inhibition at 10 μM)	− (“−” indicates less than 50% inhibition at 10 μM)	+ (“+” indicates greater than 50% inhibition at 10 μM)	− (“−” indicates less than 50% inhibition at 10 μM)	− (“−” indicates less than 50% inhibition at 10 μM)	− (“−” indicates less than 50% inhibition at 10 μM)	− (“−” indicates less than 50% inhibition at 10 μM)		A6: inhibition of radioligand binding [1]: + (“+” indicates greater than 50% inhibition at 10 μM); A5: inhibition of radioligand binding (Human melanocortin (MC5)): + (“+” indicates greater than 50% inhibition at 10 μM); A4: inhibition of radioligand binding (Human Melanocortin (MC4)): + (“+” indicates greater than 50% inhibition at 10 μM)
CSC1OC(COCc2ccc3ccccc3c2)C(O)C(OCc2ccc3ccccc3c2)C1NC(=O)CCN (stereo not shown) [compound 318]	− (“−” indicates less than 50% inhibition at 10 μM)	− (“−” indicates less than 50% inhibition at 10 μM)	+ (“+” indicates greater than 50% inhibition at 10 μM)	− (“−” indicates less than 50% inhibition at 10 μM)	− (“−” indicates less than 50% inhibition at 10 μM)	− (“−” indicates less than 50% inhibition at 10 μM)	+ (“+” indicates greater than 50% inhibition at 10 μM)	− (“−” indicates less than 50% inhibition at 10 μM)	− (“−” indicates less than 50% inhibition at 10 μM)	− (“−” indicates less than 50% inhibition at 10 μM)	− (“−” indicates less than 50% inhibition at 10 μM)										
NCCCC(=O)NC1C(OCc2ccc3ccccc3c2)OC(COCc2ccccc2)C(O)C1OCc1ccc(Cl)cc1 (single isomer, unassigned) [compound 457]												+ (“+” indicates greater than 50% inhibition at 10 μM)	+ (“+” indicates greater than 50% inhibition at 10 μM)	− (“−” indicates less than 50% inhibition at 10 μM)	− (“−” indicates less than 50% inhibition at 10 μM)	+ (“+” indicates greater than 50% inhibition at 10 μM)	− (“−” indicates less than 50% inhibition at 10 μM)		− (“−” indicates less than 50% inhibition at 10 μM)	− (“−” indicates less than 50% inhibition at 10 μM)	A5: inhibition of radioligand binding (Human melanocortin (MC5); 10 µM): − (“−” indicates less than 50% inhibition at 10 μM); A2: inhibition of radioligand binding (Human κ-Opioid (KOP)): − (“−” indicates less than 50% inhibition at 10 μM); A4: inhibition of radioligand binding (Human Melanocortin (MC4); 10 µM): − (“−” indicates less than 50% inhibition at 10 μM)
NCCC(=O)N[C@H]1C(OCc2ccc3ccccc3c2)O[C@H](COCc2ccccc2)[C@@H](O)[C@@H]1OCc1ccc2ccccc2c1 (stereo partly shown) [compound 445]												+ (“+” indicates greater than 50% inhibition at 10 μM)	+ (“+” indicates greater than 50% inhibition at 10 μM)	− (“−” indicates less than 50% inhibition at 10 μM)		+ (“+” indicates greater than 50% inhibition at 10 μM)	− (“−” indicates less than 50% inhibition at 10 μM)	+ (“+” indicates greater than 50% inhibition at 10 μM)	− (“−” indicates less than 50% inhibition at 10 μM)	+ (“+” indicates greater than 50% inhibition at 10 μM)	A3: inhibition of radioligand binding (Human Melanocortin (MC3); 10 µM): + (“+” indicates greater than 50% inhibition at 10 μM); A5: inhibition of radioligand binding (Human melanocortin (MC5); 10 µM): + (“+” indicates greater than 50% inhibition at 10 μM); A4: inhibition of radioligand binding (Human Melanocortin (MC4); 10 µM): + (“+” indicates greater than 50% inhibition at 10 μM)

— patent US20080009418A1, “Selective Inhibitors” (Alchemia LTD., priority 2004, published 2008)
